Article PMC6882465, “Towards discovery of new leishmanicidal scaffolds able to inhibit Leishmania GSK-3” (Journal of Enzyme Inhibition and Medicinal Chemistry, 2019)

Assays:
hGSK-3β = hGSK-3β (Homo sapiens, UniProt P49841); test: hGSK-3β inhibition; format: biochemical; details: Table 2
LdGSK-3 = LdGSK-3 (Leishmania donovani, UniProt A6N857); test: Inhibition of LdGSK-3 with Kinase Glo; format: biochemical; details: for IC50: Table 2, read-out: LdGSK-3 IC50; for % inhibition @ 10µM (initial screening on LdGSK3): Table S2; for percentage of inhibition of LdGSK-3: assayed at 10 µM
Sequence of LdGSK-3 (A6N857 entry or part of it): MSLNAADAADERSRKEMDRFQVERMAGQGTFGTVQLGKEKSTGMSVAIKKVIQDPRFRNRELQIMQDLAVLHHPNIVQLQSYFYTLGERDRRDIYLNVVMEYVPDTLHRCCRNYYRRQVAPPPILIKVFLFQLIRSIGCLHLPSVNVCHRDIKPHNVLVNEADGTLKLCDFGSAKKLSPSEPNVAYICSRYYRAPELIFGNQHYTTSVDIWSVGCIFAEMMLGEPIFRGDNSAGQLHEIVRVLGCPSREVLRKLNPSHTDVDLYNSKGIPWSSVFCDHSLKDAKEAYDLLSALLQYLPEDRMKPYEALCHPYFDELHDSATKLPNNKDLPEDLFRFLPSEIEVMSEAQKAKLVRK
Protocol: Assessment of inhibition of LdGSK-3 with Kinase Glo^TM
The reaction was allowed to proceed for 30 min at 30 °C, then it was incubated at room temperature for another 10 min after addition of Kinase Glo reagents (Promega, Ref. V6712). ATP consumption by LdGSK-3 was measured indirectly through end-point luminescence measurement of each well in a Varioskan Flash microplate reader (Thermo).

[1] = test system: L. infantum promastigotes; test: Leishmanicidal assay on promastigotes (inhibition of MTT reduction); format: cell-based, Leishmania infantum; details: Table S1; 72 h
Protocol: (§1) Leishmania parasites were resuspended with the corresponding drug concentration at 2 × 10^6 parasites/mL (final concentration) in their respective growth media in 96 microwell plates (200 µL/well). The parasites were allowed to growth for 72 h at 26 °C for promastigotes and 96 h at 32 °C for axenic amastigotes. Afterwards, inhibition of proliferation was measured by the inhibition of MTT reduction by the parasites. […] MTT reduction was allowed to proceed for 2 h at the respective temperature, and the resulting formazan solubilised by addition of 50 µL/well of 10% SDS. Afterwards, the plate was read at 595 nm in a BioRad Microplate-reader, model 680. Samples were made by triplicate and assays were repeated at least twice.

[2] = test system: L. pifanoi axenic amastigotes; test: Leishmanicidal assay on axenic amastigotes (inhibition of MTT reduction); format: cell-based, Leishmania pifanoi; details: Table S1; 96 h; read-out: L. pifanoi amast. ax EC50
Protocol: as §1

Sequence of hGSK-3β (P49841 whole entry): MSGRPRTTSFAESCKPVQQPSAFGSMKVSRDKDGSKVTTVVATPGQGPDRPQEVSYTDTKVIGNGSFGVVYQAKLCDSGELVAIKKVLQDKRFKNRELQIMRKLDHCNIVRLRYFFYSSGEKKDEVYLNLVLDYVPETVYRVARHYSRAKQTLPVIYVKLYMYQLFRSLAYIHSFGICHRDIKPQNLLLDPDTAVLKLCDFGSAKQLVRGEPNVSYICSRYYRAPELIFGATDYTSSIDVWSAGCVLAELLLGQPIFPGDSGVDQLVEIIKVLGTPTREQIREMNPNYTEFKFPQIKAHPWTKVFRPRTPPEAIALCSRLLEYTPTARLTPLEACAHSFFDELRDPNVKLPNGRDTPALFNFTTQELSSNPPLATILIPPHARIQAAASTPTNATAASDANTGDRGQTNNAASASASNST

Structure (SMILES) | % inhibition @ 10µM (initial screening on LdGSK3) (LdGSK-3) [%] | further results
O=S(=O)(c1cccc(CSc2nnc(-c3ccc4c(c3)OCO4)o2)c1)N1CCOCC1 [Compound 151] | 61.89±2.34 | IC50 (hGSK-3β): 20 ± 10 nM; IC50 (LdGSK-3): 2.54 ± 0.48 µM; percentage of inhibition of LdGSK-3 (LdGSK-3): higher than 50%
Cc1ccc(S(C)(=O)=O)cc1Nc1nccc(-c2sc(N)nc2-c2ccccc2)n1 [Compound 124] | 70.59±3.12 | IC50 (hGSK-3β): 810 ± 340 nM; IC50 (LdGSK-3): 6 µM; percentage of inhibition of LdGSK-3 (LdGSK-3): higher than 50%
COc1ccc(CNC(=O)Nc2nc(C)c(C(C)=O)s2)cc1 [Compound 18] | – | LdGSK-3 % inhibition (LdGSK-3; Table S1, @10 µM): < 20%; EC50 [1]: > 50 µM; EC50 [2]: > 50 µM
CN(C)Cc1cccc(Nc2nccc(-c3ccc(NCCN)c(C#N)c3)n2)c1 [Compound 119] | 100.29±1.24 | IC50 (hGSK-3β): 240 ± 40 nM; IC50 (LdGSK-3): 0.27 µM; percentage of inhibition of LdGSK-3 (LdGSK-3): higher than 50%
CC(=O)Nc1ccc(-c2cnc(N)c(-c3nc4ccc(F)cc4[nH]3)c2)cc1 [Compound 187] | 67.81±1.17 | IC50 (hGSK-3β): 1220 ± 430 nM; IC50 (LdGSK-3): 9.1 µM; percentage of inhibition of LdGSK-3 (LdGSK-3): higher than 50%
COc1ccc(Nc2nccc(N(C)c3n[nH]c4c(F)cccc34)n2)cc1S(C)(=O)=O [Compound 95] | 90.25±1.12 | IC50 (hGSK-3β): 1400 ± 250 nM; IC50 (LdGSK-3): 0.46 ± 0.07 µM; percentage of inhibition of LdGSK-3 (LdGSK-3): higher than 50%
CN(C)S(=O)(=O)c1ccc(-c2cnc(N)c(-c3nc4ccc(F)cc4[nH]3)c2)cc1 [Compound 71] | 74.63±1.76 | IC50 (hGSK-3β): 1230 ± 140 nM; IC50 (LdGSK-3): 3.6 µM; percentage of inhibition of LdGSK-3 (LdGSK-3): higher than 50%
N#CN1CC[C@@H](NC(=O)Nc2ccccc2Oc2ccccc2)C1 [Compound 72] | 7.40±4.30 | –
CN(C)c1ccc(N)cc1CN(CC1CCCO1)S(C)(=O)=O (stereo not drawn) [Compound 136] | 13.95±3.25 | –
CCN(Cc1nc2ccc(C(=O)N3CCN(c4ncccn4)CC3)cc2[nH]1)C1CCCc2cccnc21 (stereo not drawn) [Compound 182] | 9.60±1.20 | –
COc1cc(C2SCC(=O)Nc3c2c(C)nn3-c2nc3ccccc3s2)cc(OC)c1O (stereo not drawn) [Compound 179] | 29.35±2.80 | –
CC(C)(C)c1csc(NC(=O)c2ccc([N+](=O)[O-])s2)n1 [Compound 181] | 5.90±2.90 | –
CCCc1cc(N)nc(-c2cc(CCC)cc(N)n2)c1 [Compound 33] | -0.35±3.85 | –
CC(C)c1sc(Cl)nc1C(=O)NCCc1nc(C(=O)Nc2ccc3c(c2)OCO3)cs1 [Compound 60] | 0.20±2.80 | –
Cc1nc(C(=O)Nc2ccc3c(c2)OCO3)nn1-c1ccc(Cl)cc1 [Compound 149] | 8.90±2.10 | –
COc1ccc(Oc2ccc(C(C)N(C)c3ncc4c(N)nc(N)nc4n3)cc2)cc1 (stereo not drawn) [Compound 56] | 0.50±2.95 | –
COc1ccc(CNc2cc(C3CC3)nc(-c3nccn3C)n2)cc1.O=C(O)C(F)(F)F [Compound 43] | 15.30±1.60 | –
CCN(CC)c1ccc(S(=O)(=O)N(CC)CC)c2nonc12 [Compound 207] | 8.90±5.85 | –
N#Cc1cccc(Nc2nccc(N3CCC(NS(=O)(=O)c4cccc(C#N)c4)CC3)n2)c1.O=C(O)C(F)(F)F [Compound 100] | 37.05±1.50 | –
CCNc1cc(-c2ccccn2)nc(Nc2ccc(OC)cc2)n1 [Compound 45] | -2.50±5.50 | –
COc1cccc(C(=O)[C@H]2C[C@@H]2CN(Cc2ccccn2)Cc2ccccn2)c1 [Compound 153] | -5.50±2.15 | –
Cc1nc2c(-c3ncn[nH]3)cc(NC(=O)Cc3ccccc3)cn2c1C.O=CO [Compound 37] | 5.90±4.55 | –
Cc1nc(C(=O)Nc2ccc3c(c2)OCO3)nn1-c1ccc(F)cc1 [Compound 198] | 7.15±1.10 | –

Structure (SMILES) | % inhibition @ 10µM (initial screening on LdGSK3) (LdGSK-3) [%] | further results
COc1ccc2ncc(F)c(CCN3CC[C@@H](NC(=O)c4cc5c(s4)CCC5)[C@@H](O)C3)c2n1.Cl [Compound 173] | 8.60±2.90 | –
COc1cc2c(cc1OC)[C@H]1[C@@H](C)c3ccc(OC)c(OC)c3CN1CC2 [Compound 130] | 12.85±2.80 | –
Cc1nn(-c2nc(N)nc(-c3ccccn3)n2)c(N)c1-c1ccccc1.O=C(O)C(F)(F)F.O=C(O)C(F)(F)F [Compound 29] | 3.80±1.90 | –
Cc1ccccc1CNc1cc(C2CC2)nc(-c2nccn2C)n1.O=C(O)C(F)(F)F [Compound 49] | 5.60±2.35 | –
O=C(Cc1ccc2c(c1)CCC2)Nc1n[nH]c(-c2ccccn2)n1 [Compound 123] | 12.15±3.90 | –
CCCCn1nnnc1CSc1nc(C)cc(C)c1C#N [Compound 161] | 3.00±3.05 | –
O=C(Nc1ccc(C(F)(F)F)cc1)Nc1cccc([N+](=O)[O-])c1 [Compound 185] | 1.70±0.75 | –
O=C(CN(Cc1ccccn1)Cc1ccccn1)NCc1ccc2c(c1)OCO2.O=C(O)C(F)(F)F [Compound 193] | 2.65±4.15 | –
Cc1nc(-c2ccc3c(c2)OCO3)sc1C(=O)NCc1ccc2c(c1)OCO2 [Compound 205] | 14.00±2.25 | –
Nc1cc(-c2ccc3ncnc(N4CCOCC4)c3c2)cnc1N [Compound 55] | 0.55±3.00 | –
COc1ccc2ncc(=O)n(CCN3CCC(NCc4ccc(-c5cccs5)cc4)CC3)c2n1 [Compound 200] | 20.95±1.30 | –
COc1cnc2ccc(=O)n(CCN3CCC(NC/C=C/c4cc(F)ccc4F)CC3)c2c1 [Compound 84] | 3.55±2.20 | –
O=C(Nc1nc(-c2ccccn2)cs1)c1ccc(S(=O)(=O)N2CCCCC2)cc1 [Compound 116] | 7.05±1.35 | –
CN(C)CCN(C)Cc1ccc(Cl)cc1NS(=O)(=O)c1ccc(Cl)c(Cl)c1 [Compound 204] | 8.00±4.85 | –
c1ccc(Nc2nc(-c3ccccn3)cc(N3CCOCC3)n2)cc1 [Compound 34] | -2.00±2.70 | –
O=C(CN(Cc1ccccn1)Cc1ccccn1)NCc1ccc(-c2csnn2)cc1.O=C(O)C(F)(F)F [Compound 154] | 2.50±1.45 | –
c1ccc(Nc2nc3ccccc3[nH]2)nc1 [Compound 40] | 13.50±3.10 | –
Cc1ccc(NC(C)C(=O)Nc2ccc(C#N)cc2)cc1S(=O)(=O)N1CCCCC1 (stereo not drawn) [Compound 137] | 9.35±1.30 | –
COc1ccc(Cl)cc1CC(=O)Nc1n[nH]c(-c2ccccn2)n1 [Compound 122] | 3.95±2.45 | –
CC(c1ccccn1)N(C)Cc1nc2ccccc2n1C(C)C (stereo not drawn) [Compound 85] | 3.45±4.90 | –
CCCCN(C(=O)c1ccc(NC(=O)C(C)C)cc1)c1ccccc1 [Compound 168] | 14.15±2.15 | –
CC(C)c1nn(-c2nc(N)nc(-c3ccccn3)n2)c(N)c1C1CCCCC1 [Compound 94] | 10.45±0.55 | –
O=C(Nc1nc(-c2ccccn2)cs1)C1CCc2ccccc2C1 (stereo not drawn) [Compound 54] | 0.10±1.10 | –
